How the values were obtained:
Type in all cases: biochemical
Details in all cases: acetyl-CoA constant 10 mM, 40 mM Tris-HCl pH 8, 2 mM MgCl2, 37° C., 40 h
[1] = target: Staphylococcus epidermidis HMG-CoA synthase, Q8CN06, SEQ ID NO: 11 (Staphylococcus epidermidis, UniProt Q9FD76); experiment: Kinetic parameters for the enzymatic reaction between acetyl-CoA and acetone, HMG-CoA synthase of Staphylococcus epidermidis
Protocol: (§1) Kinetic Parameters for the Enzymatic Reaction Between Acetyl-CoA and Acetone in the Case of HMG Synthases
(§2) The kinetic parameters were measured using a variable concentration of acetone and a constant concentration of acetyl-CoA (10 mM) in following conditions:
(§3) The final pH was adjusted to 8.
(§4) The reaction was initiated by the addition of 3 mg of purified enzyme to the 1 ml reaction mixture. The mixture was then incubated without shaking at 37° C. for 40 h.
(§5) Analysis of 3-hydroxy-3-methylbutyrate Production
(§6) Thermochemical conditions leading to the decomposition of 3-hydroxy-3-methylbutyrate into isobutene were applied (Pressman et al., JACS, 1940, 2069-2080): the pH of the reaction mixtures was first adjusted to pH 4 using 6N HCl and the samples were then transferred into gas chromatography vials (Interchim). The vials were sealed and incubated at 110° C. for 4 hours, thus leading to the decomposition of 3-hydroxy-3-methylbutyrate into isobutene.
(§7) The calibration curve was prepared in the same conditions using commercial 3-hydroxy-3-methylbutyrate.
(§8) One milliliter of headspace gas was collected and injected into a HP5890 gas chromatograph (HP) equipped with a FID detector and a CP SilicaPlot® column (chromatography column; Varian). Commercial isobutene was used as reference. From the isobutene signal the amount of 3-hydroxy-3-methylbutyrate initially present in the sample was calculated.

[2] = target: T1, Schizosaccharomyces pombe (Fission yeast) HMG-CoA synthase, cytoplasmic, P54874, SEQ ID NO: 2 (Schizosaccharomyces pombe, UniProt P54874); experiment: Kinetic parameters for the enzymatic reaction between acetyl-CoA and acetone, HMG-CoA synthase of Schizosaccharomyces pombe
T1 construct: made in house; host or cells: E. coli BL21
T1 sequence (P54874 1-447): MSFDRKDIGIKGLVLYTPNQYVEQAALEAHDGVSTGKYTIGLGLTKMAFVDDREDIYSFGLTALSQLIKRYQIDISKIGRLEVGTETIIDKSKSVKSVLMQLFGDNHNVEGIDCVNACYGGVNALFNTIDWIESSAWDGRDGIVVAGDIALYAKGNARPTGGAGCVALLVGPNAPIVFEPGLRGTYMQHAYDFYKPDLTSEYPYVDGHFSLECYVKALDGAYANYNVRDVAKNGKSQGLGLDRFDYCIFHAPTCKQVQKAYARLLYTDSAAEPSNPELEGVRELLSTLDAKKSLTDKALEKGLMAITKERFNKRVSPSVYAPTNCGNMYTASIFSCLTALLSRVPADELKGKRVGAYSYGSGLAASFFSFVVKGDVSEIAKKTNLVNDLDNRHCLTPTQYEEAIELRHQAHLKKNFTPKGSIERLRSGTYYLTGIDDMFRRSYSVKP
Protocol: as §1, §2, §3, §4, §5, §6, §7, §8

[3] = target: T2, Gallus gallus (Chicken) HMG-CoA synthase, cytoplasmic, P23228, SEQ ID NO: 7 (Gallus gallus, UniProt P23228); experiment: Kinetic parameters for the enzymatic reaction between acetyl-CoA and acetone, HMG-CoA synthase of Gallus gallus
T2 construct: made in house; host or cells: E. coli BL21
T2 sequence (P23228 1-522): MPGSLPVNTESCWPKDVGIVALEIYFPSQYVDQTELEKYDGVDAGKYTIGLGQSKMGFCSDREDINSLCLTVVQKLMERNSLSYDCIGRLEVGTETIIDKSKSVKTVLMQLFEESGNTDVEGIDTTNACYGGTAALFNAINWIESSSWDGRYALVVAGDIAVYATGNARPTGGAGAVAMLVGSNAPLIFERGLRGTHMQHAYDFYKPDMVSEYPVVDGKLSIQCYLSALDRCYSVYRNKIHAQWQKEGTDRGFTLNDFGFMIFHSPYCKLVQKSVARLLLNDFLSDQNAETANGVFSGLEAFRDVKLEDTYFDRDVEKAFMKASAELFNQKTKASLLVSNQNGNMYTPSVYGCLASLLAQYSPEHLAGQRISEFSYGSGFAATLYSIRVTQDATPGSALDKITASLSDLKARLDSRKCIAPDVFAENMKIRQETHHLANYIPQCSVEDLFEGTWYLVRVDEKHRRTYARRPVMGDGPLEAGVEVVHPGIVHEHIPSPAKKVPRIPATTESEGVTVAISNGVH
Protocol: as §1, §2, §3, §4, §5, §6, §7, §8

Staphylococcus epidermidis HMG-CoA synthase, Q8CN06, SEQ ID NO: 11, sequence (Q9FD76 entry or part of it, one chain of several): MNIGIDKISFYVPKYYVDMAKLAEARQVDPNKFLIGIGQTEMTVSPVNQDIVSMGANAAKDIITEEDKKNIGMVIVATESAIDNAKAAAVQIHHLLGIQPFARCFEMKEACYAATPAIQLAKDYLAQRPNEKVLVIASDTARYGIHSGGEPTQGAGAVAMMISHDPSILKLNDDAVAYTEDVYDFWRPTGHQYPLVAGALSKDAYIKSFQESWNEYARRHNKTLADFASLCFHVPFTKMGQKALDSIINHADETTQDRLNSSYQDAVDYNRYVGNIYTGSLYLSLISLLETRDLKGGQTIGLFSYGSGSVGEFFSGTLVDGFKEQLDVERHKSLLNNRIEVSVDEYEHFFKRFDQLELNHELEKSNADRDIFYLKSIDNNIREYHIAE

CC(C)=O [acetone]
kcat ([1]; 0-1 M acetone): 0.6 × 10^−4, sec^−1
kcat/KM ([1]; acetone): 0.3 × 10^−6, mM^−1 × sec−^1
kcat ([2]; 0-1 M acetone): 0.2 × 10^−4, sec^−1
kcat/KM ([2]; acetone): 0.1 × 10^−6, mM^−1 × sec−^1
kcat ([3]; 0-1 M acetone): 5 × 10^−4, sec^−1
kcat/KM ([3]; acetone): 2 × 10^−6, mM^−1 × sec−^1
